Biological target: T1, Aromatase (Homo sapiens, UniProt P11511)
T1 sequence (P11511 whole entry): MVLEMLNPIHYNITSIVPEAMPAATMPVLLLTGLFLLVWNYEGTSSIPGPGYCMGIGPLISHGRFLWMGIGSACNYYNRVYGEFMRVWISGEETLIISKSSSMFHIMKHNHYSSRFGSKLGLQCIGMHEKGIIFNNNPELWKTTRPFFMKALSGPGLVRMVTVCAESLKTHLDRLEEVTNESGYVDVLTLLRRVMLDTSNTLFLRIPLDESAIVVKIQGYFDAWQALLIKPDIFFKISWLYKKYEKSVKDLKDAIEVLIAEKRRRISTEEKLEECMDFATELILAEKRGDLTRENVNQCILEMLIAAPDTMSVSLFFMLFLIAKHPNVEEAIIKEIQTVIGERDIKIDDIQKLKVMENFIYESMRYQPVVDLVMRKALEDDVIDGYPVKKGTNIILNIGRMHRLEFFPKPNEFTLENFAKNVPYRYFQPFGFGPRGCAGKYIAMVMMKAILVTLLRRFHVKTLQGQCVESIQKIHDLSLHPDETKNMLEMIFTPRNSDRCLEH
Description: Inhibition of recombinant human aromatase using O-dibenzylfluorescein benzyl ester as substrate by fluorometric assay

Row | SMILES | Ki
1 | COCO[C@@H](c1ccc(Br)cc1)[C@@H](Cn1ccnn1)c1ccccc1 | 20 nM
2 | O[C@@H](c1ccccc1)[C@@H](Cn1ccnn1)c1ccc(Br)cc1 | 820 nM
3 | O[C@@H](c1ccc(F)cc1)[C@H](Cn1ccnn1)c1ccccc1 | 200 nM
4 | COCO[C@@H](c1ccc(F)cc1)[C@H](Cn1ccnn1)c1ccccc1 | 160 nM
5 | COCO[C@@H](c1ccccc1)[C@H](Cn1ccnn1)c1ccc(Br)cc1 | 20 nM
6 | O[C@@H](c1ccccc1)[C@H](Cn1ccnn1)c1ccc(Br)cc1 | 841 nM
7 | CC(=O)O[C@@H](c1ccc(F)cc1)[C@@H](Cn1ccnn1)c1ccccc1 | 110 nM
8 | CC(=O)O[C@@H](c1ccccc1)[C@H](Cn1ccnn1)c1ccc(Br)cc1 | 647 nM
9 | O[C@@H](c1ccc(F)cc1)[C@@H](Cn1ccnn1)c1ccccc1 | 330 nM
10 | CC(=O)O[C@@H](c1ccc(F)cc1)[C@H](Cn1ccnn1)c1ccccc1 | 350 nM
11 | COCO[C@@H](c1ccc(Br)cc1)[C@H](Cn1ccnn1)c1ccccc1 | 70 nM
12 | COCO[C@@H](c1ccccc1)[C@@H](Cn1ccnn1)c1ccc(Br)cc1 | 111 nM
13 | CC(=O)O[C@@H](c1ccc(Br)cc1)[C@@H](Cn1ccnn1)c1ccccc1 | 90 nM
14 | CC(=O)O[C@@H](c1ccccc1)[C@@H](Cn1ccnn1)c1ccc(Br)cc1 | 237 nM
15 | COCO[C@@H](c1ccc(F)cc1)[C@@H](Cn1ccnn1)c1ccccc1 | 80 nM
